Values after ≈ are worked out from the molar mass of the structure shown. Read-outs that look alike come from different tables or passages of the source.
Key:
[1] = Solubility analysis in PBS (HPLC-UV); assay type: physicochemical; details: aqueous buffer, thermodynamic from solid; 1 mg in 1 mL PBS, sonicated 1 hour, 25° C. for 3 hrs
Procedure: Samples were then centrifuged at 14,000 rpm for 6 minutes at room temperature. The supernatant was diluted with acetonitrile and was removed for analysis. Analysis was performed using HPLC-UV with 7-point standard curve to determine the concentration. The average concentration calculated is regarded as the solubility (μM).

hApoA-I transgenic mice = test: hApoA-I transgenic mice, oral gavage for 14 days; assay type: in vivo; details: for change in vivo at 10 mg/kg: Mus musculus, po, 336 h, 10 mg/kg BID 14 days, relative to pretreatment, read-out: ApoA-I (% change)
From the text: To test whether the efficacy of compounds of the invention observed in vitro extended to an in vivo model, transgenic mice carrying multiple copies of the human ApoA-I gene (C57BI/6-tgn(apoa1)1 rub, Jackson Laboratory, Bar Harbor, Me.) were exposed to representative compounds of the invention. The exogenous human ApoA-I gene in these mice enables them to express the human ApoA-I protein under the control of this promoter.
Seven to eight week old male mice, transgenic for human ApoA-I were housed five per cage (10″×20″×8″ with aspen chip bedding) with pelleted Rodent chow [Purina 5001] and water available at all times. After an acclimation period of 1 week, animals were individually identified by numbering on tail and weighed. Mice were pre bled via the retro-orbital plexus, and 150 μl of blood was collected in 1.5 ml Eppendorf tube containing 1 μl of heparin and chilled on ice. Plasma was collected after centrifuging the whole blood at 14000 rpm [TOMY high speed micro-refrigerated centrifuge NTX-150] for 10 minutes at 4° C. and frozen at −80° C. Plasma was analyzed for: human ApoA-I by a human ApoA-I enzyme-linked Immunoassay [Direct Sandwich ELISA Calbiochem Cat#178422, Calbiochem Cat#178452, lot #B9076, Calbiochem Cat #178470 conjugated to Horse Radish Peroxidase (Cedarlane Cat#80220)]; total cholesterol [Ponte scientific reagents: # C7509-STD, #L7580-18, # C7510]; and triglyceride [Pointe Scientific Reagents: # 7532-STD, # L7580-18, #7532]. All samples were measured in triplicates and expressed as mg/dl. Mice were grouped based on the above plasma parameters and having an average body weight of 25 gm.
Two days following pre-bleed, mice were dosed by oral gavage daily for 14 days using a 20 gauge, 11/2″ curved disposable feeding needle [Popper & Sons]; when BID, mice were gavaged morning and afternoon (8 am and 5 pm); when SID mice were gavaged in morning (8 am). Compounds were prepared each day in vehicle. Test article(s), a positive control fenofibrate, and vehicle were dosed at volume of 5 mL/kg of body weight as a suspension (0.1 mL/20 g mouse). Fenofibrate was obtained commercially [SIGMA #F 6020]. Mice weights were recorded on day 1, 4, 7, 10, 12, and 15. On day 15, mice were weighed and fasted for 4 hours, sacrificed by inhalation of CO2 and blood was obtained via cardiac puncture (0.7-1.0 ml). Plasma was collected and frozen at −80° C. Samples were assayed for ApoA-I, total cholesterol, triglyceride and HDL-C by HPLC [Polaris 200 with an auto sampler Prostar 410 from Varian on a Superose 6 10/30 column from Amersham]. Samples were sent for NMR analysis [LipoScience] to identify particle size and subclass for lipoproteins. During necropsy, liver, brown fat, and the whole of small and large intestines were collected, cleaned with cold PBS and frozen at −80° C. for further analysis of compound levels. Variation between studies, in ApoA-I changes, was observed. Therefore, a relative comparison between individual(s) in the study groups was used.
4′-hydroxyflavone (10 mg/kg of body weight), 4-(4-oxo-4H-chromen-2-yl)phenyl nicotinate (Example 71) (10 mg/kg of body weight) and fenofibrate (100 mg/kg of body weight) were BID administered to hApoA-I transgenic mice daily for fourteen days by oral gavage in 0.5% Methylcellulose (w/v)/1% Tween 80 (w/v). Plasma was assayed for ApoA-I (FIG. 3A), HDL cholesterol and total cholesterol (FIG. 3B) and percent weight gain (FIG. 3C).
4′-hydroxyflavone (3 mg/kg of body weight), 4′-hydroxyflavone (10 mg/kg of body weight), 4′-hydroxyflavone (30 mg/kg of body weight), 2-(4-Hydroxy-phenyl)-pyrano[2,3-b]pyridin-4-one (10 mg/kg of body weight), and fenofibrate (100 mg/kg of body weight) were BID administered to hApoA-I transgenic mice daily for fourteen days by oral gavage in 0.5% methylcellulose (w/v)/1% Tween 80 (w/v). In this experiment plasma was assayed for ApoA-I. […]

human ApoA-I promoter [2] = test: Kinetics of ApoA-I promoter induction in Caco-2 cells transfected with pAI.474-Luc; assay type: cell-based; details: time points from 4 to 72 hours
Procedure: Accordingly, the kinetics of induction of the ApoA-I promoter were assessed.
Caco-2 cells transfected with pAI.474-Luc were treated with compounds of the invention at selected time points varying from 4 to 72 hours. This construct pAI.474-Luc contained the human ApoA-I promoter fused to the reporter gene, firefly luciferase (Luc).
Further, maximal stimulation appeared following 48 hour exposure. […] Maximal stimulation appeared following 48 hour exposure to the compound.

Caco-2 permeability = assay type: in vitro ADME, human; details: human, Caco-2
From the text: (§1) The Caco-2 cell drug transport model is widely used for screening compounds in drug discovery to assess intestinal transport and predict absorption rates.

human ApoA-I promoter [3] = test: ApoA-I promoter induction in HepG2 liver cells (pAI.474-Luc luciferase reporter); assay type: cell-based; details: average values at 15 μM, 48 hours incubation
Procedure: This study determined whether compounds of the invention have an effect on ApoA-I promoter activity expression in HepG2 cells, a liver cell line. Cells were grown under conditions recommended by the ATCC and summarized by Wong.
The promoter region of the gene encoding human ApoA-I was isolated and ligated upstream the structure gene of firefly luciferase to construct a reporter plasmid (pAI.474-Luc). The reporter plasmid, along with pRSV-β-galactosidase (as a control for transfection efficiency), were co-transfected into HepG2 cells. The cells were then incubated in an MEM selection media containing 20% fetal calf serum supplemented with G418 (final concentration: 0.5 mg/mL, Gibco) to give established strains that stably express from the reporter gene. The strains were seeded to a 6-well culture plates and incubated for 48 hours at 37° C. under 5% carbon dioxide. Cells were starved for 24 hrs in MEM selection media containing 0.5% FBS. Then, a solution of the compounds of the invention in DMSO (or other appropriate solvent) was added to the wells at a final concentration of 0 to 100 μM in MEM selection media containing 0.5% FBS.
After further incubation for 48 hours, the cells were harvested and lysed using Reporter Lysis Buffer (PROMEGA E3971), and 50 μL of luciferase assay reagent (PROMEGA E4550 Luciferase Reporter 1000 assay system) were added to measure luciferase activity with a luminometer (Fluoroskan Ascent FL from Thermo electron Corporation). Luciferase activity was normalized to lysate protein concentrations, measured using Bradford Reagent (Biorad Protein Assay reagent Cat #500-0006).

human ApoA-I promoter [4] = test: ApoA-I promoter induction in Caco-2 intestinal cells (pAI.474-Luc luciferase reporter); assay type: cell-based; details: Caco-2 cells, 15 μM, 48 hours incubation, luciferase activity vs control samples
Method in brief: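 Caco-2 cells stably carrying the human ApoA-I promoter–firefly luciferase construct (pAI.474-Luc) were starved 24 h in 0.5% FBS medium, then exposed to compound at 0 to 100 μM final for 48 h at 37° C. Luciferase activity in lysates was normalized to Bradford protein and compared with solvent-only and untreated controls.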

Caco-2 cells = test: Caco-2 permeability; assay type: in vitro ADME, human; details: in vitro Caco-2 intestinal transport model
From the text: as §1

ApoA-I protein = ApoA-I protein expression in HepG2 cells (ELISA of conditioned media); assay type: cell-based, human; details: 7.5 μM; for ApoA-I content in the medium (ELISA): 6 and 24 hours, vs untreated cells and cells treated with solvent; for time after addition of compound at which ApoA-I levels in the medium start to increase: time course 0, 6, 24 hours
Procedure: This study confirmed that compounds of the invention have an effect on ApoA-I protein secretion in HepG2 (liver) cells by measuring whether stimulation of transcriptional activity of the endogenous ApoA-I promoter in the HepG2 cells increased the abundance and secretion of ApoA-I protein.
The HepG2 cell line was obtained from the ATCC and cultured in MEM media supplemented with 10% FBS (Gibco), with 1 mM sodium pyruvate, 0.1 mM MEM non-essential amino acid, 2 mM L-glutamine, 100 U/ml penicillin, 100 μg/ml streptomycin and 5 μg/ml plasmocin. Cells were maintained at 37° C. in an atmosphere of 5% CO2 Cells were grown to 85% confluency prior to initiating the experiment.
Cells were plated and allowed to adhere overnight in a phenol red-free DMEM containing 10% of Charcoal/Dextran treated FBS (Hyclone), with 1 mM sodium pyruvate, 0.1 mM MEM non-essential amino acid, 2 mM L-glutamine, 100 U/ml penicillin, 100 μg/ml streptomycin and 5 μg/ml plasmocin. The medium was removed, and cells were washed in 1×PBS. Cells were then starved in phenol red-free DMEM (serum free) for a period of 24 hours. Cells were then mock treated (untreated, DMSO), or treated with compound of the invention diluted in phenol red-free DMEM (serum free) media at a concentration of 7.5 μM. Cells and media were harvested at 0, 6 and 24 hours following compound treatment.
Medium was removed from cells at the desired times and applied to a solid phase capture sandwich in an ELISA assay according to manufacturer's instructions (Total human Apolipoprotein ELISA Assay-Alercheck).

[5] = subjects with low HDL-C; Rubins et al. 1999; cited from earlier work
[6] = Table 6 fourth group, Control 3 1.11

SMILES	solubility at 3 h [1]	Papp (Caco-2 permeability)	ApoA-I Promoter Induction (human ApoA-I promoter [4])	melting point	further results
O=c1cc(-c2ccc(O)cc2)oc2ccccc12 [4′-hydroxyflavone, reference compound]	5.04 µM (≈ 1.2 µg/mL)	4.31 ×10⁻⁶ cm/s	–	–	plasma ApoA-I, net % change over vehicle (hApoA-I transgenic mice; Experiment A, 10 mg/kg BID oral gavage, 14 days, 0.5% methylcellulose/1% Tween 80): 32.44%; HDL cholesterol, net % change (hApoA-I transgenic mice; Experiment A, 10 mg/kg BID oral gavage, two weeks, NMR lipoprotein profile): 12.6%; liver weight gain normalized to body weight, compared to vehicle (hApoA-I transgenic mice; Experiment A, 10 mg/kg BID, day 15, male mice): minor changes; change in ApoA-I over vehicle (hApoA-I transgenic mice; Experiment B, 3 and 30 mpk BID oral gavage, 14 days): lack of statistically significant change; plasma ApoA-I, net % change over vehicle (hApoA-I transgenic mice; Experiment B, 10 mpk BID oral gavage, two weeks): 31.24%; exposure time of maximal stimulation of ApoA-I promoter activity (human ApoA-I promoter [2]): 48 h; ApoA-I Promoter Induction (human ApoA-I promoter [3]): increased
O=c1cc(-c2ccc(O)cc2)oc2cc(O)cc(O)c12 [5,7-Dihydroxy-2-(4-hydroxy-phenyl)-chromen-4-one, reference compound]	–	–	increased	–	exposure time of maximal stimulation of ApoA-I promoter activity (human ApoA-I promoter [2]): 48 h
O=c1cc(-c2ccc(O)cc2)oc2cc(O)cc(O)c12 [5,7-dihydroxy-2-(4-hydroxyphenyl)-4H-chomen-4-one] [reference compound]	–	–	–	–	% Transported Paap (Caco-2 cells): 1.5 ×10⁻⁶ cm/s; ApoA-I Promoter Induction (human ApoA-I promoter [3]): increased
Cc1c(-c2ccc(O)cc2)oc2ccccc2c1=O [Example 24, 2-(4-hydroxyphenyl)-3-methyl-4H-chromen-4-one]	–	–	–	241 to 242 °C	ApoA-I content in the medium (ELISA) (ApoA-I protein): increased significantly; time after addition of compound at which ApoA-I levels in the medium start to increase (ApoA-I protein): ~6 h
O=c1cc(-c2ccc(O)c(F)c2)oc2ncccc12 [Example 37, 2-(3-fluoro-4-hydroxyphenyl)pyrano[2,3-b]pyridine-4-one]	194 µM (≈ 50 µg/mL)	2.06 ×10⁻⁶ cm/s	increased	267 to 268 °C	change in vivo at 10 mg/kg (hApoA-I transgenic mice; Table 6 second group, Control 1 3.42): 14.4%
O=c1cc(-c2ccc(O)cc2)oc2ccncc12 [Example 39, 2-(4-hydroxyphenyl)-4H-pyrano[3,2-c]pyridine-4-one]	31.6 µM (≈ 7.56 µg/mL)	1.21 ×10⁻⁶ cm/s	increased	306 to 308 °C	change in vivo at 10 mg/kg (hApoA-I transgenic mice; [6]): 11.2%
O=c1cc(-c2ccc(O)c(Br)c2)oc2ncccc12 [Example 42, 2-(3-bromo-4-hydroxyphenyl)-4H-pyrano[2,3-b]pyridin-4-one]	52.6 µM (≈ 16.7 µg/mL)	0.959 ×10⁻⁶ cm/s	increased	267 to 272 °C	–
COc1ccc(-c2cc(=O)c3cccnc3o2)cc1 [Example 44, 2-(4-methoxyphenyl)-4H-pyrano[2,3-b]pyridine-4-one]	–	–	increased	269 to 270 °C	ApoA-I content in the medium (ELISA) (ApoA-I protein): increased significantly; time after addition of compound at which ApoA-I levels in the medium start to increase (ApoA-I protein): ~6 h
O=c1[nH]c(-c2ccc(O)cc2)cc2ccccc12 [Example 53, 3-(4-hydroxyphenyl)-2H-isoquinolin-1-one]	44.9 µM (≈ 10.7 µg/mL)	1.76 ×10⁻⁶ cm/s	increased	239 to 241 °C	change in vivo at 10 mg/kg (hApoA-I transgenic mice; [6]): 13.2%; ApoA-I Promoter Induction (human ApoA-I promoter [3]): increased
Oc1ccc(-c2cc3ncccc3cn2)cc1 [Example 57, 4-(1,6-naphthyridin-7-yl)phenol]	–	5.34 ×10⁻⁶ cm/s	increased	219 to 221 °C	change in vivo at 10 mg/kg (hApoA-I transgenic mice; [6]): 9.49%; ApoA-I content in the medium (ELISA) (ApoA-I protein): increased significantly; time after addition of compound at which ApoA-I levels in the medium start to increase (ApoA-I protein): ~6 h
Cc1ccc(C)c(OCCCC(C)(C)C(=O)O)c1 [gemfibrozil]	–	–	–	–	increase in the HDL-C level [5]: 6%; reduction of the CHD risk [5]: 22%
